# Reference: ChEMBL document CHEMBL3046105, “Synthesis and antihyperlipidemic efficiency of berberine-based HMG-CoA reductase inhibitor” (Med Chem Res, 2012)
# What was measured:
# Oryctolagus cuniculus [1] = assay: Toxicity in high fat-high cholesterol fed New Zealand Oryctolagus cuniculus (rabbit) assessed as body weight at 15 mg/kg, po for 40 days; type: organism-based; parameters: dose 15 mg/kg, route oral; settings: in vivo, 960 h
# Oryctolagus cuniculus [2] = assay: Toxicity in hyperlipidemic New Zealand Oryctolagus cuniculus (rabbit) assessed as blood urea nitrogen level at 5 mg/kg/day, po for 2 months (reference value: 7.25 +/- 1.46 mmol/l); type: organism-based; parameters: route oral; settings: in vivo
# Oryctolagus cuniculus [3] = assay: Antihyperlipidemic activity in high fat-high cholesterol fed New Zealand Oryctolagus cuniculus (rabbit) assessed as triglyceride level in blood at 15 mg/kg, po for 40 days (reference value: 2.11 +/- 0.43 mmol/l); type: functional
# Oryctolagus cuniculus [4] = assay: Toxicity in hyperlipidemic New Zealand Oryctolagus cuniculus (rabbit) assessed as total bilirubin level at 5 mg/kg/day, po for 2 months (reference value: 28.45 +/- 11.55 Umol/l); type: organism-based; parameters: route oral; settings: in vivo
# Oryctolagus cuniculus [5] = assay: Antihyperlipidemic activity in high fat-high cholesterol fed New Zealand Oryctolagus cuniculus (rabbit) assessed as low-density lipoprotein-cholesterol level in blood at 10 mg/kg, po for 40 days (reference value: 3.47 +/- 0.44 mmol/l); type: functional
# Oryctolagus cuniculus [6] = assay: Antihyperlipidemic activity in high fat-high cholesterol fed New Zealand Oryctolagus cuniculus (rabbit) assessed as high-density lipoprotein-cholesterol level in blood at 15 mg/kg, po for 40 days (reference value: 0.69 +/- 0.02 mmol/l); type: functional
# Oryctolagus cuniculus [7] = assay: Toxicity in hyperlipidemic New Zealand Oryctolagus cuniculus (rabbit) assessed as alanine aminotransferase level at 15 mg/kg/day, po for 2 months (reference value: 92.14 +/- 14.3 U/l); type: organism-based; parameters: route oral; settings: in vivo
# Oryctolagus cuniculus [8] = assay: Antihyperlipidemic activity in high fat-high cholesterol fed New Zealand Oryctolagus cuniculus (rabbit) assessed as triglyceride level in blood at 10 mg/kg, po for 40 days (reference value: 2.07 +/- 0.33 mmol/l); type: functional
# Oryctolagus cuniculus [9] = assay: Toxicity in hyperlipidemic New Zealand Oryctolagus cuniculus (rabbit) assessed as blood urea nitrogen level at 10 mg/kg/day, po for 2 months (reference value: 7.25 +/- 1.46 mmol/l); type: organism-based; parameters: route oral; settings: in vivo
# Oryctolagus cuniculus [10] = assay: Antihyperlipidemic activity in high fat-high cholesterol fed New Zealand Oryctolagus cuniculus (rabbit) assessed as low-density lipoprotein-cholesterol level in blood at 15 mg/kg, po for 40 days (reference value: 3.45 +/- 0.56 mmol/l); type: functional
# Oryctolagus cuniculus [11] = assay: Antihyperlipidemic activity in high fat-high cholesterol fed New Zealand Oryctolagus cuniculus (rabbit) assessed as total cholesterol level in blood at 10 mg/kg, po for 40 days (reference value: 8.74 +/- 0.53 mmol/l); type: functional
# Oryctolagus cuniculus [12] = assay: Toxicity in hyperlipidemic New Zealand Oryctolagus cuniculus (rabbit) assessed as effect on kidney coefficient at 5 to 15 mg/kg/day, po for 2 months; type: organism-based; parameters: route oral; settings: in vivo
# Oryctolagus cuniculus [13] = assay: Toxicity in hyperlipidemic New Zealand Oryctolagus cuniculus (rabbit) assessed as histopathological examination of heart at 5 to 15 mg/kg/day, po for 2 months by hematoxylin-eosin staining analysis; type: organism-based; parameters: route oral; settings: in vivo
# Oryctolagus cuniculus [14] = assay: Toxicity in hyperlipidemic New Zealand Oryctolagus cuniculus (rabbit) assessed as morbidity at 5 to 15 mg/kg/day, po for 2 months; type: organism-based; parameters: route oral; settings: in vivo
# Oryctolagus cuniculus [15] = assay: Antihyperlipidemic activity in high fat-high cholesterol fed New Zealand Oryctolagus cuniculus (rabbit) assessed as total cholesterol level in blood at 15 mg/kg, po for 40 days (reference value: 8.89 +/- 0.53 mmol/l); type: functional
# Oryctolagus cuniculus [16] = assay: Toxicity in hyperlipidemic New Zealand Oryctolagus cuniculus (rabbit) assessed as effect on spleen coefficient at 5 to 15 mg/kg/day, po for 2 months; type: organism-based; parameters: route oral; settings: in vivo
# Oryctolagus cuniculus [17] = assay: Antihyperlipidemic activity in high fat-high cholesterol fed New Zealand Oryctolagus cuniculus (rabbit) assessed as total cholesterol level in blood at 5 mg/kg, po for 40 days (reference value: 8.74 +/- 0.53 mmol/l); type: functional
# Oryctolagus cuniculus [18] = assay: Antihyperlipidemic activity in high fat-high cholesterol fed New Zealand Oryctolagus cuniculus (rabbit) assessed as high-density lipoprotein-cholesterol level in blood at 15 mg/kg, po for 40 days (reference value: 0.67 +/- 0.22 mmol/l); type: functional
# [19] = target: T1, 3-hydroxy-3-methylglutaryl-coenzyme A reductase (Mus musculus) (UniProt Q01237); assay: Inhibition of HMGR isolated from Mus musculus (mouse) liver assessed as change in NADPH at 8 umol/l by HPLC analysis
# T1 sequence (whole entry): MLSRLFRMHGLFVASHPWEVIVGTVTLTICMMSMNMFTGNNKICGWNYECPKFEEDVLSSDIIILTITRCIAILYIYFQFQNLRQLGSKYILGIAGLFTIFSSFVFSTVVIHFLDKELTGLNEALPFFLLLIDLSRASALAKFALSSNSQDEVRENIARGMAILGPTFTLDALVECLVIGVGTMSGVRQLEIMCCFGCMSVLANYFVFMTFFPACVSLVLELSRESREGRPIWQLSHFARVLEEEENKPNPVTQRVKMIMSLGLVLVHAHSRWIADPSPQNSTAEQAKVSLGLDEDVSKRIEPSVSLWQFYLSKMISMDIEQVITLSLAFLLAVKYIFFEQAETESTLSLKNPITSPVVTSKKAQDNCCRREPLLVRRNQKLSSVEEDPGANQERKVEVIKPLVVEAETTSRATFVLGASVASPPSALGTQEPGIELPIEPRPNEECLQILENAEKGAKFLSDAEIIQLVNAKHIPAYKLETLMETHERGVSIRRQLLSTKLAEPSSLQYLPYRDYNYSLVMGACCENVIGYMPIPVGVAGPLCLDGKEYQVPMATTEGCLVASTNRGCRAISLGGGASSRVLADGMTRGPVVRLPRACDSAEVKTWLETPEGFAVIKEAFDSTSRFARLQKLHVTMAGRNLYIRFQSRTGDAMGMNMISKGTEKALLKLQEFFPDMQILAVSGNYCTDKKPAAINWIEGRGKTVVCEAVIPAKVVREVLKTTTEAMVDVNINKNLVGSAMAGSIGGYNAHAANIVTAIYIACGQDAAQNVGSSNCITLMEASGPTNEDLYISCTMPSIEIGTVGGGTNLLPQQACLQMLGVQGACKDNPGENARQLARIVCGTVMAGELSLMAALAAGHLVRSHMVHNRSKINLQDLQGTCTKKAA
# Oryctolagus cuniculus [20] = assay: Toxicity in hyperlipidemic New Zealand Oryctolagus cuniculus (rabbit) assessed as alanine aminotransferase level at 10 mg/kg/day, po for 2 months (reference value: 92.14 +/- 14.3 U/l); type: organism-based; parameters: route oral; settings: in vivo
# Oryctolagus cuniculus [21] = assay: Toxicity in hyperlipidemic New Zealand Oryctolagus cuniculus (rabbit) assessed as histopathological examination of liver at 5 to 15 mg/kg/day, po for 2 months by hematoxylin-eosin staining analysis; type: organism-based; parameters: route oral; settings: in vivo
# Oryctolagus cuniculus [22] = assay: Antihyperlipidemic activity in high fat-high cholesterol fed New Zealand Oryctolagus cuniculus (rabbit) assessed as high-density lipoprotein-cholesterol level in blood at 5 mg/kg, po for 40 days (reference value: 0.69 +/- 0.02 mmol/l); type: functional
# Oryctolagus cuniculus [23] = assay: Toxicity in hyperlipidemic New Zealand Oryctolagus cuniculus (rabbit) assessed as blood urea nitrogen level at 15 mg/kg/day, po for 2 months (reference value: 7.25 +/- 1.46 mmol/l); type: organism-based; parameters: route oral; settings: in vivo
smiles,measurement,setting,value
CCCCCCCCCCCCCCCCc1c2c(OC)c(OC)ccc2cc2[n+]1CCc1cc3c(cc1-2)OCO3.[Cl-] [8-HEXADECYL-BERBERINE CHLORIDE],Activity,Oryctolagus cuniculus [1],Non-toxic
same,Activity,Oryctolagus cuniculus [2],5.45 mmol/L
same,Activity,Oryctolagus cuniculus [3],1.58e+06 nmol/L
same,Activity,Oryctolagus cuniculus [4],15.6 µmol/L
same,Activity,Oryctolagus cuniculus [5],2.46e+06 nmol/L
same,Activity,Oryctolagus cuniculus [6],750000 nmol/L
same,Activity,Oryctolagus cuniculus [7],64.63 U/L
same,Activity,Oryctolagus cuniculus [8],1.89e+06 nmol/L
same,Activity,Oryctolagus cuniculus [9],4.73 mmol/L
same,Activity,Oryctolagus cuniculus [10],2.02e+06 nmol/L
same,Activity,Oryctolagus cuniculus [11],4.26e+06 nmol/L
same,Activity,Oryctolagus cuniculus [12],Non-toxic
same,Activity,Oryctolagus cuniculus [13],Non-toxic
same,Activity,Oryctolagus cuniculus [14],Non-toxic
same,Activity,Oryctolagus cuniculus [15],2.22e+06 nmol/L
same,Activity,Oryctolagus cuniculus [16],Non-toxic
same,Activity,Oryctolagus cuniculus [17],6.92e+06 nmol/L
same,Activity,Oryctolagus cuniculus [18],750000 nmol/L
same,inhibition,[19],42.7%
same,Activity,Oryctolagus cuniculus [20],71.53 U/L
same,Activity,Oryctolagus cuniculus [21],Non-toxic
same,Activity,Oryctolagus cuniculus [22],700000 nmol/L
same,Activity,Oryctolagus cuniculus [23],4.36 mmol/L
